Assay results reported in US8906357B2, “Treatment of multiple sclerosis with masitinib” (AB Science, priority 2010, dated 2014).
Values joined by “and” are separate entries in the source; they are usually repeats but may differ in a detail not shown here. Equal values may be shown once. “Also recorded” adds a separate entry of the source. Read-outs that look alike come from different tables or passages of the source.

Tests used:
mouse EAE model of MS = assay: Mouse EAE model of MS (MOG-induced disease in C57BL/6 mice), daily clinical score; type: in vivo; details: days 26-35
Procedure: The ability and effect of masitinib in the inhibition of MC function in MS was explored using the EAE murine model. The myelin oligodendrocyte glycoprotein (MOG)-induced disease in C57BL/6 mice is considered to be a model for all progressive foinis of MS. C57BL/6 mice were immunized with 300 ng MOG35-55 peptide (an immunological target in the human disease) on days 0 (in complete Freund's adjuvant) and 7 (in incomplete Freund's adjuvant) and 250 ng pertussis was administered intravenously on days 0 and 2. Mice were scored daily by visual assessment of symptoms on a scale of 0-5 where 1 denotes a flaccid tail, 2 denotes hind limb weakness, 3 denotes hind limb paralysis, 4 denotes an inability to right from supine and 5 indicates death. Statistical analyzes of significance between mean clinical scores were performed using Bonferroni's Multiple Comparison Test-One way ANOVA or paired t tests. Statistical analyses were performed for the daily intervals between days 26-35. Five mice per experimental group were administrated the following treatment every day from the first day of immunization (day 0): • Vehicle (PBS) • Masitinib 25 mg/kg, 2 times per day, intraperitoneal injection • Masitinib 12.5 mg/kg, 2 times per day, intraperitoneal injection

[1] = system: patients with PPMS or rfSPMS;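 note: oral masitinib started at 3 or 6 mg/kg/day split twice daily, with up to two 1.5 mg/kg/day increases permitted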
Procedure: Patients were randomized to receive orally administered masitinib at an initial dose of 3 or 6 mg/kg/day b.i.d, with two dose increases of 1.5 mg/kg/day permitted in the event of lack of activity and manageable toxicity. Masitinib and placebo were supplied as 100 or 200 mg tablets. The initial study had three arms but this was amended to close the 3 mg/kg/day bid arm after approximately 1 year.
MS evaluations were performed at screening, at week 0 (baseline), at month 1, 2, 3, 6, 9, 12, 18 and 24 or at the withdrawal visit. […] Masitinib tolerance was assessed by clinical and biological safety parameters.
Patients having SPMS with relapse in the 2 years before inclusion were excluded. No oral or parenteral concomitant corticosteroids were permitted for the duration of study, except in case of protocol-defined demyelinating event (methylprednisolone at 1 g/day for 3 days). No immunomodulating, immunosuppressing, chemotherapy and paracetamol concomitant administration were permitted for the duration of the study. Concomitant analgesic without anti-inflammatory action and oral narcotic analgesic were not allowed on the day of a study visit until all efficacy evaluations were completed. Concomitant physical therapy was allowed in patients already receiving such therapy at study entry. To manage rash, a mandatory concomitant treatment (cetirizine, 10 mg/day for 30 days) was combined with masitinib.
The latter is a multidimensional, MS-specific outcome measure, comprising of a timed 25-foot walk (T25FW) test measuring leg function and ambulation, a 9-hole peg test (9-HPT) measuring arm and hand function and a Paced Auditory Serial Addition Test 3 seconds (PASAT-3″) measuring cognitive function. The MSFC was calculated as described in the National Multiple Sclerosis Society MSFC administration and scoring manual by averaging the z-scores from each components of the MSFC.
Adverse events (AE) were described by duration, intensity, relation to masitinib and course of action. Intensities were graded either mild (signs and symptoms are present without functional repercussions), moderate (there are functional repercussions without putting the patient's health at risk), or severe (functional alterations or incapacity or definite risk for the patient health).

[2] = system: patients with RRMS or rSPMS
Procedure: A multicenter, open-label, non-controlled, proof-of-concept clinical trial, designed to evaluate the efficacy and safety of oral masitinib administered at 3 or 6 mg/kg/day for 36 weeks in patients with RRMS or rSPMS.
Eligible patients should have had at least one active gadolinium lesion at any of the three MRI performed during an 8 week run-in period and an EDSS score within the range of 2.0 to 6.5 inclusive.

[3] = system: wild-type and juxtamembrane-mutated c-Kit receptors; details: results in cell cycle arrest and apoptosis of c-Kit dependent cell lines; cited from earlier work
human cord blood MCs = details: cited from earlier work
[4] = during the treatment period (W0 to W36)

**Q.** Which results are given for `Cc1ccc(NC(=O)c2ccc(CN3CCN(C)CC3)cc2)cc1Nc1nc(-c2cccnc2)cs1` [masitinib, 4-(4-methylpiperazin-1-ylmethyl)-N-[4-methyl-3-(4-pyridin-3ylthiazol-2-ylamino)phenyl]benzamide]?
**A.** p value, mean clinical score, vehicle versus masitinib 12.5 mg/kg (mouse EAE model of MS; 12.5 mg/kg 2 times per day intraperitoneal): p < 0.001; p value, mean clinical score, vehicle versus masitinib 25 mg/kg (mouse EAE model of MS; 25 mg/kg 2 times per day intraperitoneal): p < 0.001; p value, mean clinical score, masitinib 25 mg/kg versus masitinib 12.5 mg/kg (mouse EAE model of MS; 2 times per day intraperitoneal): p < 0.001; mean clinical score relative to vehicle (mouse EAE model of MS; both doses (25 and 12.5 mg/kg 2 times per day i.p.)): significant differences in mean clinical score; also recorded: significant reduction in disease; MSFC mean percentage change from baseline ([1]; All (masitinib n = 24), M3, LOCF): 78%; MSFC mean percentage change from baseline ([1]; All (masitinib n = 24), M3, LOCF, listed as Masitinib): 78 ± 284%; MSFC mean percentage change from baseline ([1]; All (masitinib n = 24), M6, LOCF): 156 ± 274%; MSFC mean percentage change from baseline ([1]; All (masitinib n = 24), M9, LOCF): 70 ± 267%; MSFC mean percentage change from baseline ([1]; All (masitinib n = 24), M12, LOCF): 103 ± 189%; MSFC mean percentage change from baseline ([1]; All (masitinib n = 24), M18, LOCF): +96%; MSFC mean percentage change from baseline ([1]; All (masitinib n = 24), M18, LOCF, listed as Masitinib): 96 ± 191%; MSFC mean percentage change from baseline ([1]; PPMS (masitinib n = 9), M3, LOCF): +108%; MSFC mean percentage change from baseline ([1]; PPMS (masitinib n = 9), M3, LOCF, listed as Masitinib): 108 ± 435%; MSFC mean percentage change from baseline ([1]; PPMS (masitinib n = 9), M6, LOCF): 202 ± 353%; MSFC mean percentage change from baseline ([1]; PPMS (masitinib n = 9), M9, LOCF): 56 ± 410%; MSFC mean percentage change from baseline ([1]; PPMS (masitinib n = 9), M12, LOCF): 134 ± 268%; MSFC mean percentage change from baseline ([1]; PPMS (masitinib n = 9), M18, LOCF): +134%; MSFC mean percentage change from baseline ([1]; PPMS (masitinib n = 9), M18, LOCF, listed as Masitinib): 134 ± 268%; EDSS score course ([1]; PPMS population): stable; Mean 9-HPT raw score change ([1]; at month 18): -1.6 s; Mean PASAT-3″ raw score change ([1]; at month 18): +6.0; Mean T25FW raw score change ([1]; at month 18): +1.6 seconds; death ([1]; during the study): No death; MSQLI subscale SSS, mean percentage change from baseline ([1]; ex-post, n = 4): −6.9 ± 29.0%; MSQLI subscale VIS, mean percentage change from baseline ([1]; ex-post, n = 4): 0 ± 0%; MSQLI subscale SF-36, mean percentage change from baseline ([1]; ex-post, n = 5): 12.7 ± 24.3%; MSQLI subscale PDQ, mean percentage change from baseline ([1]; ex-post, n = 6): 1.1 ± 11.7%; MSQLI subscale BoCS, mean percentage change from baseline ([1]; ex-post, n = 7): −3.1 ± 8.8%; MSQLI subscale MSSS, mean percentage change from baseline ([1]; ex-post, n = 7): 6.2 ± 9.4%; MSQLI subscale PES, mean percentage change from baseline ([1]; ex-post, n = 7): −3.9 ± 12.2%; MSQLI subscale BLCS, mean percentage change from baseline ([1]; ex-post, n = 8): 21.5 ± 72.4%; MSQLI subscale MFIS, mean percentage change from baseline ([1]; ex-post, n = 8): −3.0 ± 14.9%; MSQLI subscale MHI, mean percentage change from baseline ([1]; ex-post, n = 9): 15.2 ± 25.99%; number of AEs reported by investigators ([1]; masitinib group n = 27): 100; patients reporting AEs (adverse events) ([1]; masitinib group n = 27): 85%; patients reporting a serious, non-fatal AE ([1]; masitinib group n = 27): 33%; patients reporting a severe AE suspected to be related to therapy ([1]; masitinib group n = 27): 26%; patients with an AE leading to masitinib discontinuation ([1]; masitinib group n = 27): 26%; Asthenia, number of patients ([1]; masitinib n = 27): 11; Asthenia, percent of patients ([1]; masitinib n = 27): 41%; Diarrhea, number of patients ([1]; masitinib n = 27): 3; Diarrhea, percent of patients ([1]; masitinib n = 27): 11%; Nausea, number of patients ([1]; masitinib n = 27): 7; Nausea, percent of patients ([1]; masitinib n = 27): 26%; Rash, number of patients ([1]; masitinib n = 27): 3; Rash, percent of patients ([1]; masitinib n = 27): 11%; Urinary Tract Infection, number of patients ([1]; masitinib n = 27): 3; Urinary Tract Infection, percent of patients ([1]; masitinib n = 27): 11%; Weight Decreased, number of patients ([1]; masitinib n = 27): 3; Weight Decreased, percent of patients ([1]; masitinib n = 27): 11%; effect on MSQLI subscales (SF-36, MFIS, PES, PDQ, MHI, MSSS) ([1]; over the course of treatment): improved; mean change in EDSS ([1]; overall, over 18 months): < 0.5; MSFC mean percentage change from baseline ([1]; rfSPMS (masitinib n = 15), M3, LOCF): +60%; MSFC mean percentage change from baseline ([1]; rfSPMS (masitinib n = 15), M3, LOCF, listed as Masitinib): 60 ± 152%; MSFC mean percentage change from baseline ([1]; rfSPMS (masitinib n = 15), M6, LOCF): 129 ± 223%; MSFC mean percentage change from baseline ([1]; rfSPMS (masitinib n = 15), M9, LOCF): 78 ± 146%; MSFC mean percentage change from baseline ([1]; rfSPMS (masitinib n = 15), M12, LOCF): 84 ± 130%; MSFC mean percentage change from baseline ([1]; rfSPMS (masitinib n = 15), M18, LOCF): +73%; MSFC mean percentage change from baseline ([1]; rfSPMS (masitinib n = 15), M18, LOCF, listed as Masitinib): 73 ± 131%; EDSS score course ([1]; rfSPMS population): remained stable; brain volume (MS-related imaging) ([1]; throughout the study, masitinib group): two patients experienced a brain volume increase; tolerability overall ([2]; 3 or 6 mg/kg/day oral): relatively well tolerated; EDSS ([2]; 36-week study): neither improvement nor progression; average number of T1 lesions ([2]; after 12 weeks of treatment (run-in period 5.35), 4 patients): 1.5 lesions; average volume of T1 lesions ([2]; after 12 weeks of treatment (run-in period 777 mm^3)): 54 mm^3; average number of T1 lesions ([2]; after 20 weeks of treatment (run-in period 5.35), 4 patients): 0.25 lesions; average volume of T1 lesions ([2]; after 20 weeks of treatment (run-in period 777 mm^3)): 40 mm^3; T1 gadolinium-enhancing lesion number ([2]; all patients, at consecutive time points during the study): reduced to none; patients in whom both number and volume of T1 lesions decreased ([2]; during masitinib treatment): 3/4; average number of T1 lesions [2, 4]: 1.0 lesion; average volume of T1 lesions [2, 4]: 99 mm^3; number and volume of T2 hyperintense lesions and T1 hyperintense lesions ([2]; during treatment): remained globally stable; death ([2]; human, in vivo): No death; total AEs reported during the treatment period ([2]; in two patients, all at doses of ≧6 mg/kg/day): 11; patients experiencing relapses during treatment ([2]; one patient out of four, three relapses): 25%; EDSS score maintained ([2]; patient in the study extension phase, to W84): 2.5; relapse-free duration of individual patients ([2]; three patients, respectively): 7 months and 11.5 months and 25 months; inhibitory effect on c-Kit receptors [3]: strong inhibitory effect; FcER1-mediated degranulation (human cord blood MCs): inhibition
